# Experimental data taken from patent publication US11571418B2, “Platinum compounds that inhibit constitutive STAT3 signaling and induce cell cycle arrest and apoptosis of malignant cells” (H. LEE MOFFITT CANCER CENTER AND RESEARCH INSTITUTE, INC., priority 2011, dated 2023).
# Key:
# [1] = system: Stat3 tyrosine phosphorylation; experiment: Stat3 tyrosine phosphorylation, Western blot; assay type: cell-based; conditions: mouse fibroblasts, time- and dose-dependent
# Procedure: FIGS. 3A-3D. Inhibition of Stat3-mediated gene expression by PLATINUM-401. (FIG. 3A) and (FIG. 3B) v-Src-transformed mouse fibroblasts that stably express Stat3-dependent (NIH3T3/v-Src/pLucTKS3) and Stat3-independent (NIH3T3/v-Src/pRLSRE) luciferase reporters or β-galactosidase (β-gal), as well as normal mouse fibroblast (NIH3T3) transiently transfected with pLucTKS3, pGL2-VEGF-Luc, NFkB-Luc or pLucSRE together with or without v-Src were treated with or without PLATINUM-401 for 48 h. Cytosolic extracts were then prepared from cells for luciferase and […] activities measurements. Values are the means and S.D. of three to five independent assays; (FIG. 3C) and (FIG. 3D) Nuclear extracts or whole cell lysates were prepared from IL-6-stimulated normal mouse fibroblasts (NIH3T3) or their v-Src-transformed counterpart (NIH3T3/v-Src) that are treated with or without PLATINUM-401 for different times. Samples of equal total proteins were then subjected to in vitro DNA-binding activity and EMSA analysis or for SDS-PAGE and Western blot analysis for phosphorylated and total Stat3.
# Western blot—Whole-cell lysates were prepared in boiling sodium dodecyl sulfate (SDS) sample-loading buffer to extract total proteins from the cytoplasm and nucleus. […]
# (§1) To further investigate the activities of PLATINUM-401, the inventors treated malignant cells and measured effects on Stat3 signaling. […]
# inactive Stat1 monomer = biological target: T1, inactive Stat1 monomer (Homo sapiens, UniProt P42224); experiment: Inactive STAT monomer added to activated Stat3 before EMSA (titration of compound); assay type: binding; conditions: monomer added to activated Stat3, pre-incubated with compound 30 min
# T1 construct: made in house; host or cells: Sf-9 insect cells infected with baculovirus
# NFκB-Luc = experiment: NFκB promoter-driven luciferase reporter assay; assay type: cell-based; conditions: transient transfection in mouse fibroblasts
# Procedure: FIGS. 3A-3D. Inhibition of Stat3-mediated gene expression by PLATINUM-401. (FIG. 3A) and (FIG. 3B) v-Src-transformed mouse fibroblasts that stably express Stat3-dependent (NIH3T3/v-Src/pLucTKS3) and Stat3-independent (NIH3T3/v-Src/pRLSRE) luciferase reporters or β-galactosidase (β-gal), as well as normal mouse fibroblast (NIH3T3) transiently transfected with pLucTKS3, pGL2-VEGF-Luc, NFkB-Luc or pLucSRE together with or without v-Src were treated with or without PLATINUM-401 for 48 h. Cytosolic extracts were then prepared from cells for luciferase and […] activities measurements. […]
# Cell proliferation and TUNEL assays—Proliferating cells were first treated with or without PLATINUM-401 for up to 48 h. A portion of cells were harvested for BrdU incorporation following the manufacturer's (BD Biosciences Pharmingen, San Diego, Calif.) instructions and analyzed by flow cytometry. Harvested cells were also analyzed for apoptosis via detection of TdT-mediated dUTP nick-end labeling (TUNEL) assay using Apoptosis Detection Systems Fluorescein according to the manufacturer's (Roche, Indianapolis, Ind.) instructions. […]
# as §1
# T1 sequence (P42224 whole entry): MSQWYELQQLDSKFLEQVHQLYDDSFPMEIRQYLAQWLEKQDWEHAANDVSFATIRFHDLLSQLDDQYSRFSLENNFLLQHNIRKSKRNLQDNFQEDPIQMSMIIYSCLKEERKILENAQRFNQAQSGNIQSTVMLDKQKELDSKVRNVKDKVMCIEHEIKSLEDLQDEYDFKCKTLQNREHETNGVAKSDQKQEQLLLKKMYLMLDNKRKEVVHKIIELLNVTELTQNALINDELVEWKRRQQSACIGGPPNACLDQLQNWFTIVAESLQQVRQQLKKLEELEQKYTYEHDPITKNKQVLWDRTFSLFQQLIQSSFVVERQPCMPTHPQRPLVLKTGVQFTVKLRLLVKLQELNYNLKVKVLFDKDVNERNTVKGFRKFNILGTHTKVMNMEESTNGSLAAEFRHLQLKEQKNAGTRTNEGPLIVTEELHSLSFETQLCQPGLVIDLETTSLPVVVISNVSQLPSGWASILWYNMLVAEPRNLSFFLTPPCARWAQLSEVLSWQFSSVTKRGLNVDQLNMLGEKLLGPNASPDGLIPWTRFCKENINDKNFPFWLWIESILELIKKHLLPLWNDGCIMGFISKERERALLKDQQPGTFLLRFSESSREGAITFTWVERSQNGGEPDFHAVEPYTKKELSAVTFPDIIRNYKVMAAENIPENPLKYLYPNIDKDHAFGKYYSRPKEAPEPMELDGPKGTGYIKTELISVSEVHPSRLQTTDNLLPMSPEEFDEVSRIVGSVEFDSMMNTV
compound,measurement,setting,value
CC(O)CN1CCN(CC(C)O)CC1 (stereo not drawn) [PLATINUM-401],Stat3 tyrosine phosphorylation,[1],inhibits
same,interaction with inactive Stat1 monomer,inactive Stat1 monomer,also interacts
same,induction of NFκB promoter-driven luciferase reporter activity,NFκB-Luc,no inhibitory effects
